Consider seven compounds from patent US4172145A, “Benzo(b)furylacetic acid derivatives to reduce inflammation” (priority 1975, dated 1979).

Like-named read-outs stand apart in the source and are kept apart here.

Data set [1] has as its system pain threshold of inflamed and not inflamed paws of rats. Nature of the data set: Analgesic activity in rats (Randall-Selitto Method). The class given is in vivo, rat (male Wister strain). The settings on record: Rattus norvegicus, po, read-out: Analgesic Coefficient; for change in vivo at 150 mg/kg: P.O. 150 mg/kg. The protocol: A group consisting of 6-7 rats (male Wister strain; weight: 100-120 g) was used for the test and control groups in this test. Each rat of both groups was treated with 0.1 ml of a 1% carrageenin solution as phlogistic agent by subcutaneous injection in one hind paw. 3 hours after the administration, pressure was applied to the treated paw of each rat by means of a pressing device (manufactured by Ugobasile S. A., Italy). The threshold of pain induced by press was measured with reference to the shriek and struggle according to the method of Randall and Selitto [Randall, L. O. and Selitto, J. J.; Arch, Int. Pharmocodyn., 111, 409 (1957)]. From each group 5 rats having a good response reaction, i.e. the pain threshold was not more than 70 g, were respectively selected. […] 1, 2 and 3 hours after administration, pressure was again applied to both the inflamed and not inflamed paws of the test rats and the pain threshold was measured. On the other hand, without the administration of the active compound, the pressure was applied to both the inflamed and not inflamed paws of the selected 5 rats of the control group and the pain threshold was measured. The inflamed paws of the test and control groups were compared with each other. Also the not inflamed paws of the both groups were compared with each other.
The analgesic coefficient was calculated by means of the following equation, and the larger analgesic coefficient the better analgesic activity. [formula] in which X: analgesic coefficient (%)
P1 : threshold (g) of the test rats administered with active compounds
P2 : threshold (g) of the control rats without administration of active compound

The nature of data set [2]: in vivo. The settings on record: rat, po. The method, then:
A test group consisting of 10-15 rats (male Wistar strain; weight: 180-220 g) was used in this test. Each rat was fasted for 20 hours, but water was allowed ad libitum. The compounds shown in Table 5 were administered orally. After a 20-hour interval during which the rats were not fed but were allowed water, each rat was administered under ether anesthesia with 0.5 ml per 100 g body weight of a 5% solution of pontamine sky blue 6BX in saline (pH 7.2--adjusted with 0.5 N HCl) by intravenous injection. 15 minutes after administration each rat was killed. The stomach was removed and maintained in a 1% formalin solution. After about 2 hours, the stomach was opened along the greater curvature and the length of lesions (dark blue areas against pale blue background) in the glandular portion was measured under a dissecting microscope (10×) provided with a square grid. The sum of the lengths (mm) of lesions was used as ulcer index.

Data set [3] concerns carrageenin-induced edema on the hind paw of rats. Briefly: Anti-edema effect on carrageenin-induced edema on the hind paw of rats (Carrageenin Edema Method). The class given is in vivo, rat (male Wistar strain). The settings on record: rat, oral, 3 hours after carrageenin. The protocol:
The anti-edema effect was determined according to the method of Yamazaki et al [Yamazaki, H., et al; Folia Pharmacologica Japonica, 63, 302 (1967)].
In this test, a group consisting of five rats (male Wistar strain: weight 100-120 g) was used for the test and control groups. The compounds shown in Table 2 were administered orally to the rats of the test group. After one hour, 0.1 ml of a 1% carrageenin solution (phlogistic agent) was further administered to each rat by subcutaneous injection in one hind paw. To each rat of the control group, 0.1 ml of a 1% carrageenin solution was also administered in a similar manner to that for test rats. 1, 3 and 5 hours after administration of the phlogistic agent, the swelling ratio was calculated by means of the following equation: […]
Test group [formula] in which b: swelling ratio
B: volume of a hind paw without administration of phlogistic agent
B': volume of a hind paw administered with phlogistic agent
Control group [formula] in which a: swelling ratio
A: volume of a hind paw without administration of phlogistic agent
A': volume of a hind paw administered with phlogistic agent
The anti-edema effect was expressed as the suppression ratio of the edema in comparison with the control group to which the test compound had not been administered. The suppression ratio of the edema was determined 3 hours after administration of the phlogistic agent and was calculated by means of the following equation: [formula] in which a and b are as hereinbefore defined.
On the technique in general: Carrageenan injected into the paw causes an acute inflammation.

Data set [4] has as its system acetic acid-induced writhing reactions in mice. Nature of the data set: Analgesic activity in mice (AcOH Writhing Method). The class given is in vivo, mouse (male dd-strain). The settings on record: mouse, oral. The method, then:
In this test, three groups, each consisting of 10 mice (male dd-strain; weight: 19-21 g) were used. The compounds shown in Table 3 were administered orally to the test mice. One hour after the administration, the mice were treated with 0.1 ml/10 g of 0.7% acetic acid solution in physiological saline by intraperitoneal injection according to the method of Koster et al [Koster, R., et al; Fed. Proc., 18, 412 (1959)]. Ten minutes after the treatment, the number of writhing reactions occurring in the mice was counted.
(In writhing tests, fewer writhes than in controls are read as antinociception.)

A short description of data set [5]: in vivo. Conditions: oral, observed one week, Litchfield and Wilcoxon. The method, then: In this test, five groups, each consisting of 5 mice (male dd strain; weight: 19-21 g) and 5 rats (male Wistar strain; weight: 100-120 g) were used. […] The LD50 was calculated according to the method of Litchfield and Wilcoxon [Journal of Pharmacol. and Exper. Therap.

The mark [6] stands for this setting: read-out: Anti-edema Effect, Suppression Ratio.
The mark [7] stands for this setting: 1 h before acetic acid, read-out: Analgesic Effect (AcOH Writhing Method), Suppression Ratio.
[8] abbreviates: mouse, read-out: Acute Toxicity (P.O.), LD50, Mouse.
Where [9] appears, read: rat, read-out: Acute Toxicity (P.O.), LD50, Rat.

As usually defined, the ED50 is the dose at which the effect has come halfway, by size or by number of responders. One may read the LD50 as the dose at which mortality reaches 50%.

Regarding `CC(C)Cc1ccc(C(C)C(=O)O)cc1` (centres unmarked) [Ibuprofen, reference compound], the change in vivo at 150 mg/kg came out at 20.9% in data set [1] (1 h, inflamed paw, 1 hr.); 0.5% in data set [1] (1 h, not inflamed paw, 1 hr.); 28.8% in data set [1] (2 h, inflamed paw, 2 hr.); 5.5% in data set [1] (2 h, not inflamed paw, 2 hr.); 23.3% in data set [1] (3 h, inflamed paw, 3 hr.); 4.2% in data set [1] (3 h, not inflamed paw, 3 hr.). The compound also yielded a TD50 at 20 h in the data set “in vivo [2]” of 46 mg/kg. Besides, the inhibition in vivo at 150 mg/kg in data set [3] (setting [6]) was 45.3%; in data set [4] (setting [7]), 57.2%.
`CCCCC1C(=O)N(c2ccccc2)N(c2ccccc2)C1=O` [Phenylbutazone, reference compound]: the change in vivo at 100 mg/kg was determined as 3.8% in data set [1] (1 h, P.O. 100 mg/kg (** on upper line only), not inflamed paw, 1 hr.); 20.7% in data set [1] (1 h, P.O. 100 mg/kg, inflamed paw, 1 hr.); 5.4% in data set [1] (2 h, P.O. 100 mg/kg (** on upper line only), not inflamed paw, 2 hr.); 23.2% in data set [1] (2 h, P.O. 100 mg/kg, inflamed paw, 2 hr.); 2% in data set [1] (3 h, P.O. 100 mg/kg (** on upper line only), not inflamed paw, 3 hr.); 27.7% in data set [1] (3 h, P.O. 100 mg/kg, inflamed paw, 3 hr.). The TD50 at 20 h in “in vivo [2]” came to 76 mg/kg. The inhibition in vivo at 100 mg/kg in data set [3] (100 mg/kg (footnote *; printed in 75 mg/kg column), read-out: Anti-edema Effect, Suppression Ratio) came to 42.6%; in data set [4] (100 mg/kg (footnote *; printed in 75 mg/kg column), read-out: Analgesic Effect (AcOH Writhing Method), Suppression Ratio), 20.8%. Also, the inhibition in vivo at 200 mg/kg in data set [3] (200 mg/kg (footnote **; printed in 150 mg/kg column), read-out: Anti-edema Effect, Suppression Ratio) was found to be 53.5%; in data set [4] (200 mg/kg (footnote **; printed in 150 mg/kg column), read-out: Analgesic Effect (AcOH Writhing Method), Suppression Ratio) it was 28.2%.
Regarding `Cc1c(CC(=O)O)oc2ccccc12` [Test Compound 1, 3-methyl-2-benzo(b)furylacetic acid], the change in vivo at 150 mg/kg in data set [1] (1 h, inflamed paw, 1 hr.) worked out at 13.8%; in data set [1] (1 h, not inflamed paw, 1 hr.), 0.4%; in data set [1] (2 h, inflamed paw, 2 hr.) it was 5.9%; in data set [1] (2 h, not inflamed paw, 2 hr.) it was 1.7%; in data set [1] (3 h, inflamed paw, 3 hr.), 4.2%; in data set [1] (3 h, not inflamed paw, 3 hr.), 0%. Also, the inhibition in vivo at 75 mg/kg in data set [3] (setting [6]) worked out at 25.3%; in data set [4] (75 mg/kg, 1 h before acetic acid, read-out: Analgesic Effect (AcOH Writhing Method), Suppression Ratio) it was 21.7%. Further, the inhibition in vivo at 150 mg/kg in data set [3] (setting [6]) is 41.2%; in data set [4] (setting [7]), 42.9%. The inhibition in vivo at 300 mg/kg came to 54.2% in data set [3] (setting [6]) and 70.9% in data set [4] (setting [7]). Further, the ED50 in data set [3] is 240 mg/kg; in data set [4] (read-out: Analgesic Effect (AcOH Writhing Method), ED50), 170 mg/kg. In addition, the results for the LD50 at 168 h in the data set “in vivo [5]” (setting [8]) and in the data set “in vivo [5]” (setting [9]) were over 1100 mg/kg and over 300 mg/kg, respectively.
As for `Cc1c(CC(=O)O)oc2ccc(C(C)(C)C)cc12` [Test Compound 6, 5-tert-butyl-3-methyl-2-benzo(b)furylacetic acid], the change in vivo at 150 mg/kg in data set [1] (1 h, inflamed paw, 1 hr.) was 19.5%; in data set [1] (1 h, not inflamed paw, 1 hr.), 6%; in data set [1] (2 h, inflamed paw, 2 hr.), 17.8%; in data set [1] (2 h, not inflamed paw, 2 hr.), 0.8%; in data set [1] (3 h, inflamed paw, 3 hr.), 14.4%; in data set [1] (3 h, not inflamed paw, 3 hr.), 1.3%. The inhibition in vivo at 150 mg/kg in data set [3] (setting [6]) is 39.9%; in data set [4] (setting [7]), 23.7%. Moreover, the LD50 at 168 h was over 1000 mg/kg in the data set “in vivo [5]” (setting [8]) and over 300 mg/kg in the data set “in vivo [5]” (setting [9]).
With `Cc1c(CC(=O)O)oc2ccc(-c3ccccc3)cc12` [Test Compound 7, 5-phenyl-3-methyl-2-benzo(b)furylacetic acid], the change in vivo at 150 mg/kg in data set [1] (1 h, inflamed paw, 1 hr.) turned out to be 37.2%; in data set [1] (1 h, not inflamed paw, 1 hr.), 8%; in data set [1] (2 h, inflamed paw, 2 hr.), 23.3%; in data set [1] (2 h, not inflamed paw, 2 hr.), 2.4%; in data set [1] (3 h, inflamed paw, 3 hr.), 11.3%; in data set [1] (3 h, not inflamed paw, 3 hr.) it was 4.7%. The inhibition in vivo at 75 mg/kg in data set [3] (setting [6]) came out at 52.7%. Besides, the inhibition in vivo at 150 mg/kg in data set [3] (setting [6]) was 63.9%; in data set [4] (setting [7]), 20.9%. Also, the inhibition in vivo at 300 mg/kg came out at 73.3% in data set [3] (setting [6]) and 77.6% in data set [4] (setting [7]). This compound also displayed an ED50 in data set [3] of 70 mg/kg. The LD50 at 168 h in “in vivo [5]” (setting [8]) was 500 to 1000 mg/kg; in “in vivo [5]” (setting [9]) it was over 300 mg/kg.
Take `Cc1c(CC(=O)O)oc2ccc(Cc3ccccc3)cc12` [Test Compound 8, 5-benzyl-3-methyl-2-benzo(b)furylacetic acid]: the change in vivo at 150 mg/kg was found to be 23.1% in data set [1] (1 h, inflamed paw, 1 hr.); 1.7% in data set [1] (1 h, not inflamed paw, 1 hr.); 24.7% in data set [1] (2 h, inflamed paw, 2 hr.); 0.7% in data set [1] (2 h, not inflamed paw, 2 hr.); 29.5% in data set [1] (3 h, inflamed paw, 3 hr.); 6.1% in data set [1] (3 h, not inflamed paw, 3 hr.). Also, the inhibition in vivo at 150 mg/kg in data set [3] (setting [6]) worked out at 31.1%; in data set [4] (setting [7]), 30.5%. Further, the inhibition in vivo at 300 mg/kg in data set [4] (setting [7]) was found to be 55.6%. The 50% lethal dose (LD50) at 168 h in the data set “in vivo [5]” (setting [8]) is 500 to 1000 mg/kg; in the data set “in vivo [5]” (setting [9]) it was over 300 mg/kg.
Regarding `Cc1c(CC(=O)O)oc2ccc(C3CCCCC3)cc12` [Test Compound 9, 5-cyclohexyl-3-methyl-2-benzo(b)furylacetic acid], the change in vivo at 150 mg/kg in data set [1] (1 h, inflamed paw, 1 hr.) came out at 0%; in data set [1] (1 h, not inflamed paw, 1 hr.) it was 0%; in data set [1] (2 h, inflamed paw, 2 hr.), 2%; in data set [1] (2 h, not inflamed paw, 2 hr.), 0%; in data set [1] (3 h, inflamed paw, 3 hr.) it was 32%; in data set [1] (3 h, not inflamed paw, 3 hr.), 17.2%. Moreover, the inhibition in vivo at 150 mg/kg in data set [3] (setting [6]) amounted to 28%. Also, the LD50 at 168 h in the data set “in vivo [5]” (setting [8]) is over 1000 mg/kg; in “in vivo [5]” (setting [9]), over 150 mg/kg.
